The structures appear in SMILES notation. Values joined by “and” are separate entries in the source; they are usually repeats but may differ in a detail not shown here. Identical values can stand only once. Some results are limits rather than exact numbers.

The subject of this test is SW1271 complex spheroids with HUVEC/MSC, growth, % test/control. As to the kind of experiment: Anticancer human tumor SW1271 cell line growth inhibition [AhR].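 For all read-outs here: spheroids exposed to agents for 7 days before readout.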 As to conditions: for viability, T/C: stronger effect = lower value. Put shortly: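 Complex tumor spheroids co-cultured with HUVEC and human MSC stroma; AhR antagonists tested in combination with standard-of-care and investigational agents. Top concentration at or near clinical Cmax (else 10 microM), half-log dilutions; growth expressed as percent test/control.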

Where [1] appears, read: curve of first compound, second compound 0.1 µM.
Where [2] appears, read: curve of first compound, second compound 0.316 µM.
Where [3] appears, read: curve of first compound, second compound 1 µM.
[4] abbreviates: curve of first compound, second compound 3.16 µM.
Setting [5] is: curve of first compound, second compound 10 µM.
The mark [6] stands for this setting: second compound 0.1 µM, first compound 0.0316 µM.
The mark [7] stands for this setting: second compound 0.1 µM, first compound 0.1 µM.
Setting [8] is: second compound 0.316 µM, first compound 0.0316 µM.
[9] abbreviates: second compound 0.316 µM, first compound 0.1 µM.
Where [10] appears, read: second compound 1 µM, first compound 0.0316 µM.
Where [11] appears, read: second compound 1 µM, first compound 0.1 µM.
Where [12] appears, read: second compound 3.16 µM, first compound 0.0316 µM.
Setting [13] is: second compound 3.16 µM, first compound 0.1 µM.
Setting [14] is: second compound 10 µM, first compound 0.0316 µM.
The mark [15] stands for this setting: second compound 10 µM, first compound 0.1 µM.

For the compound `CC(CO)NC(=O)c1cc(-c2ccc(Cl)cc2)nn(-c2cnn(C)c2)c1=O` (centres undefined), for the setting “compound 0.1 µM”, the viability, T/C was 94.2% [middle of 20 runs]. The IC50 (compound alone, run of 08/08/2022) was above 10000 nM.
For `CC[C@@]1(O)C(=O)OCc2c1cc1n(c2=O)Cc2cc3c(CN(C)C)c(O)ccc3nc2-1` + Cc1ccccc1N=Nc1ccc(NC(=O)c2ccnn2C)c(C)c1, the IC50 by setting is: under setting [1], above 100 nM; under setting [2], above 100 nM; under setting [3], above 100 nM; under setting [4], above 100 nM; under setting [5], above 100 nM. Moreover, the viability, T/C runs as follows: (second compound 0.1 µM, first compound 0.000316 µM) 81.8%; (second compound 0.1 µM, first compound 0.001 µM) 98.9%; (second compound 0.1 µM, first compound 0.00316 µM) 69.4%; (second compound 0.1 µM, first compound 0.01 µM) 67.8%; under setting [6], 57.5%; under setting [7], 53.1%. The viability, T/C is 89.4% (second compound 0.316 µM, first compound 0.000316 µM); 92% (second compound 0.316 µM, first compound 0.001 µM); 79.9% (second compound 0.316 µM, first compound 0.00316 µM); 65.8% (second compound 0.316 µM, first compound 0.01 µM); 69.2% under setting [8]; 63.9% under setting [9]. Besides, the viability, T/C was 77.9% (second compound 1 µM, first compound 0.000316 µM); 83.4% (second compound 1 µM, first compound 0.001 µM); 88% (second compound 1 µM, first compound 0.00316 µM); 80% (second compound 1 µM, first compound 0.01 µM); 63.8% under setting [10]; 57.3% under setting [11]. The viability, T/C (second compound 3.16 µM, first compound 0.000316 µM) was 84.5%; the viability, T/C (second compound 3.16 µM, first compound 0.001 µM) was 86.4%; the viability, T/C (second compound 3.16 µM, first compound 0.00316 µM) was 88.7%; the viability, T/C (second compound 3.16 µM, first compound 0.01 µM) is 68.2%; the viability, T/C under setting [12] was 78.2%; the viability, T/C under setting [13] was 67.4%. The viability, T/C (second compound 10 µM, first compound 0.000316 µM) was 86.7%; the viability, T/C (second compound 10 µM, first compound 0.001 µM) was 83%; the viability, T/C (second compound 10 µM, first compound 0.00316 µM) was 87.2%; the viability, T/C (second compound 10 µM, first compound 0.01 µM) is 62.1%; the viability, T/C under setting [14] is 60.8%; the viability, T/C under setting [15] is 65.5%.
With `Cn1ncnc1C1c2n[nH]c(=O)c3cc(F)cc(c23)NC1c1ccc(F)cc1` (centres undefined), the viability, T/C was 114% and 102% and 95.2% (compound 0.000316 µM); 97.2% and 109% and 100% (compound 0.001 µM); 101% and 95.9% and 94% (compound 0.00316 µM); 106% and 105% (2×) (compound 0.01 µM); 89.5% and 112% and 96.6% (compound 0.0316 µM); 88.7% and 93.8% and 83.6% (compound 0.1 µM). Moreover, the IC50 (curve of compound) was above 100 nM.
Take `O=C(C=Cc1cccc(S(=O)(=O)Nc2ccccc2)c1)NO` + CC(CO)NC(=O)c1cc(-c2ccc(Cl)cc2)nn(-c2cnn(C)c2)c1=O: the half-maximal inhibitory concentration (IC50) under setting [1] worked out at 1200 nM; the IC50 under setting [2] turned out to be 768 nM; the IC50 under setting [3] is 1500 nM; the IC50 under setting [4] came out at 914 nM; the half-inhibitory concentration (IC50) under setting [5] worked out at 793 nM. Besides, the viability, T/C is, setting by setting: under setting [6], 98.4%; under setting [7], 92.5%; (second compound 0.1 µM, first compound 0.316 µM) 75.4%; (second compound 0.1 µM, first compound 1 µM) 57.9%; (second compound 0.1 µM, first compound 3.16 µM) 24.7%; (second compound 0.1 µM, first compound 10 µM) 9.02%. The viability, T/C is, setting by setting: under setting [8], 92.4%; under setting [9], 87.6%; (second compound 0.316 µM, first compound 0.316 µM) 71.1%; (second compound 0.316 µM, first compound 1 µM) 45.5%; (second compound 0.316 µM, first compound 3.16 µM) 16.6%; (second compound 0.316 µM, first compound 10 µM) 11.7%. Further, the viability, T/C under setting [10] was 85.9%; the viability, T/C under setting [11] was 80.8%; the viability, T/C (second compound 1 µM, first compound 0.316 µM) is 75.5%; the viability, T/C (second compound 1 µM, first compound 1 µM) is 63%; the viability, T/C (second compound 1 µM, first compound 3.16 µM) is 28.4%; the viability, T/C (second compound 1 µM, first compound 10 µM) was 9.03%. Further, the viability, T/C under setting [12] was 85%; the viability, T/C under setting [13] is 73.1%; the viability, T/C (second compound 3.16 µM, first compound 0.316 µM) was 65.2%; the viability, T/C (second compound 3.16 µM, first compound 1 µM) was 51.4%; the viability, T/C (second compound 3.16 µM, first compound 3.16 µM) is 27%; the viability, T/C (second compound 3.16 µM, first compound 10 µM) is 10.7%. Moreover, the viability, T/C by setting is: under setting [14], 90.2%; under setting [15], 76.2%; (second compound 10 µM, first compound 0.316 µM) 54.4%; (second compound 10 µM, first compound 1 µM) 57.1%; (second compound 10 µM, first compound 3.16 µM) 26.7%; (second compound 10 µM, first compound 10 µM) 9.34%.
In the case of `Nc1ncn(C2CC(O)C(CO)S2)c(=O)n1` (centres undefined) + Cc1ccccc1N=Nc1ccc(NC(=O)c2ccnn2C)c(C)c1, the IC50 was above 300 nM under setting [1]; above 300 nM under setting [2]; above 300 nM under setting [3]; above 300 nM under setting [4]; above 300 nM under setting [5]. Further, the viability, T/C (second compound 0.1 µM, first compound 0.000949 µM) is 120%; the viability, T/C (second compound 0.1 µM, first compound 0.003 µM) was 102%; the viability, T/C (second compound 0.1 µM, first compound 0.00949 µM) is 87.8%; the viability, T/C (second compound 0.1 µM, first compound 0.03 µM) was 102%; the viability, T/C (second compound 0.1 µM, first compound 0.0949 µM) was 95.4%; the viability, T/C (second compound 0.1 µM, first compound 0.3 µM) was 79.5%. In addition, the viability, T/C is, setting by setting: (second compound 0.316 µM, first compound 0.000949 µM) 101%; (second compound 0.316 µM, first compound 0.003 µM) 94.4%; (second compound 0.316 µM, first compound 0.00949 µM) 83.6%; (second compound 0.316 µM, first compound 0.03 µM) 89.2%; (second compound 0.316 µM, first compound 0.0949 µM) 89.9%; (second compound 0.316 µM, first compound 0.3 µM) 78.6%. The viability, T/C (second compound 1 µM, first compound 0.000949 µM) was 87.9%; the viability, T/C (second compound 1 µM, first compound 0.003 µM) was 96%; the viability, T/C (second compound 1 µM, first compound 0.00949 µM) was 109%; the viability, T/C (second compound 1 µM, first compound 0.03 µM) was 94.6%; the viability, T/C (second compound 1 µM, first compound 0.0949 µM) is 76.9%; the viability, T/C (second compound 1 µM, first compound 0.3 µM) is 99.9%. Moreover, the viability, T/C was 81.2% (second compound 3.16 µM, first compound 0.000949 µM); 115% (second compound 3.16 µM, first compound 0.003 µM); 116% (second compound 3.16 µM, first compound 0.00949 µM); 88.7% (second compound 3.16 µM, first compound 0.03 µM); 85.4% (second compound 3.16 µM, first compound 0.0949 µM); 105% (second compound 3.16 µM, first compound 0.3 µM). In addition, the viability, T/C is, setting by setting: (second compound 10 µM, first compound 0.000949 µM) 103%; (second compound 10 µM, first compound 0.003 µM) 95.3%; (second compound 10 µM, first compound 0.00949 µM) 86%; (second compound 10 µM, first compound 0.03 µM) 92.7%; (second compound 10 µM, first compound 0.0949 µM) 85%; (second compound 10 µM, first compound 0.3 µM) 77.2%.

What is called viability, T/C is the result in the treated group divided by that in the control group, in per cent. In general, IC50 refers to the point on the concentration scale where inhibition reaches its midpoint.
